Patent US20240102100A1, “RIBOSOMAL RNAS 2'O-M[…] A NOVEL SOURCE OF […] FOR DIAGNOSIS, PROGNOSIS AND THERAPY OF CANCERS” (CENTRE LEON BERARD, priority 2020, published 2024)

Assays:
[1] = test system: hMEC epithelial cells; experiment: Cell viability monitored in real time (Incucyte), cell confluence as read-out, with increasing concentration of anisomycin; assay type: cell-based, human; details: real-time monitoring
From the text: (§1) Cell lines and cell viability. The epithelial and mesenchymal cellular models were kindly provided by Alain Puisieux's team (17). Briefly, the human epithelial mammary cell (hMECs) were used to derive EMT-related cellular models. The hMEC cell line corresponds to epithelial cells (Lonza) that were immortalized by lentiviral transduction allowing hTERT overexpression. The hMEC cell line was then transduced with lentiviral vector to induce stable over-expression of the murine EMT-TF ZEB1 and to promote EMT and thus generates the hMEC-ZEB1 mesenchymal cell line. The hMEC cellular models were maintained in DM EM-F12 (Gibo) supplemented with 0.5 μg/ml hydrocortisone, 10 ng/ml EGF, […] insulin, 10% fetal calf serum, 100 μg/ml streptomycin and 100 units/ml of penicillin. Selective pressure was maintained with puromycin for hMEC-ZEB1. Cell viability was monitored in real-time using Incucyte Live-Cell analysis system (Statorius). Cells were plated in 96-well plates without selective pressure for 24 hrs before addition of the anisomycin antibiotic (range concentration 2-200 nM). DMSO was used as negative control.
(§2) At day 6, difference in cell viability was determined using cell confluence as a read-out.

[2] = test system: hMEC-ZEB1 mesenchymal cells; experiment: as above; assay type: cell-based, human
From the text: as §1, §2

COc1ccc(C[C@H]2NC[C@H](O)[C@H]2OC(C)=O)cc1 [anisomycin]
change in cell morphology [1]: no change in cell morphology was observed
sensitivity to anisomycin treatment (cell viability, cell confluence as read-out) ([2]; hMEC-ZEB1 mesenchymal cells compared with hMEC epithelial cells, anisomycin 2-200 nM, day 6): more sensitive
change in cell morphology ([2]; mesenchymal cells, increasing concentration of anisomycin, real-time monitoring): no change in cell morphology was observed
